Values of other authors, collected in US20230023005A1, “IMPROVING THE PERFORMANCE OF PIGMENT-BASED DYES BY USING A PRETREAMENT AGENT” (Henkel AG & Co. KGaA, priority 2019, published 2023).

Columns and labels:
[1] = 25° C.
[2] = 5% solution in water

Row | pH value of solution in water [2] | SMILES | solubility in water [1]
1 | – | O=C([O-])C1=NN(c2ccc(S(=O)(=O)[O-])cc2)C(=O)C1N=Nc1ccc(S(=O)(=O)[O-])cc1.[Na+].[Na+].[Na+] (centres unmarked) [Acid Yellow 23, trisodium salt of 4,5-dihydro-5-oxo-1-(4-sulfophenyl)-4-((4-sulfophenyl)azo)-1H-pyrazole-3-carboxylic acid] | highly soluble in water
2 | – | O=S(=O)([O-])c1ccc(N=Nc2c(O)ccc3ccccc23)cc1.[Na+] [Acid Orange 7, sodium salt of 4-[(2-hydroxy-1-naphthyl)azo]benzene sulphonate] | more than 7 g/L
3 | 4.4 | O=P([O-])(O)O.[K+] [Potassium dihydrogen phosphate] | –
4 | – | O=C([O-])c1c(Cl)c(Cl)c(Cl)c(Cl)c1-c1c2c(Br)cc(=O)c(Br)c-2oc2c(Br)c(O)cc(Br)c12.O=C([O-])c1c(Cl)c(Cl)c(Cl)c(Cl)c1-c1c2c(Br)cc(=O)c(Br)c-2oc2c(Br)c(O)cc(Br)c12.[Na+].[Na+] [Acid Red 92, disodium salt of 3,4,5,6-tetrachloro-2-(1,4,5,8-tetrabromo-6-hydroxy-3-oxoxanthen-9-yl)benzoic acid] | greater than 10 g/L
5 | – | Nc1cc(S(=O)(=O)[O-])cc2cc(S(=O)(=O)[O-])c(N=Nc3ccccc3)c(O)c12.[Na+].[Na+] [Acid Red 33, diantrium salt of 5-amino-4-hydroxy-3-(phenylazo)-naphthalene-2,7-disulphonate] | 2500 µg/mL
